# Laboratory results from PMC7261162 (2020).
# Experiments:
# [1] = test system: CatG4-ext2 / Comp-1 / ssDNA / Comp-3 GQ-duplex chimera (DNA, G4) TGGGTAGGGCGGGTTGGGAAATATTTTAGCTCACGAGACGCTCCCATAGTGACCTATAGTGAGTCGTATTAAAGTCCGGAGGACTGTCCTCCGGC/TCACTATGGGAGCGTCTCGTGAGCTAAA/CTTTAATACGACTCACTATAGG/GCCGGAGGACAGTCCTCCGGA; test: hemin-dependent self-biotinylation, StAv gel shift (indirect); conditions: 20 mM KCl, 26 mM MgCl2, 2.5 mM spermidine; QD buffer pH 8.0; 1 uM DNA, 5 uM hemin; ssDNA strand not biotinylated
# [2] = test system: rBCL2 (RNA, G4) AGGGGGCCGUGGGGUGGGAGCUGGGG; test: as above; conditions: 20 mM KCl; 40 mM HEPES pH 8.0, 22°C; 5 uM hemin
# [3] = test system: TBA (DNA, G4) GGTTGGTGTGGTTGG; test: as above; conditions: 20 mM KCl; 40 mM HEPES pH 8.0, 22°C; 5 uM hemin
# [4] = test system: KIT1 (DNA, G4) AGGGAGGGCGCTGGGAGGAGGG; test: as above; conditions: 20 mM KCl; 40 mM HEPES pH 8.0, 22°C; 5 uM hemin
# [5] = test system: MYC (DNA, G4) TGAGGGTGGGTAGGGTGGGTAA; test: as above; conditions: 20 mM KCl; 40 mM HEPES pH 8.0, 22°C; 5 uM hemin
# [6] = test system: hTELO (DNA, G4) GGTTAGGGTTAGGGTTAGGGTTAGGGTTAG; test: as above; conditions: 20 mM KCl; 40 mM HEPES pH 8.0, 22°C; 5 uM hemin
# [7] = test system: CatG4-ext (DNA, G4) ACATAGCTGACTGGCTTGATTTTGGGTAGGGCGGGTTGGGAAATATCGAATTCTCAGCCTACACTGCAGTACTAGTACATATCA; test: as above; conditions: 20 mM KCl, 26 mM MgCl2, 2.5 mM spermidine; QD buffer pH 8.0, 22°C; 10 nM DNA, 5 uM hemin, 100 uM ssDNA or dsDNA competitor
# [8] = test system: rNRAS (RNA, G4) AGGGAGGGGCGGGUCUGGG; test: as above; conditions: 20 mM KCl; 40 mM HEPES pH 8.0, 22°C; 5 uM hemin
# [9] = test system: CatG4 (DNA, G4) TGGGTAGGGCGGGTTGGGAAA; test: as above; conditions: 20 mM KCl; 40 mM HEPES pH 8.0, 22°C; 5 uM hemin
# [10] = test system: SPB1 (DNA, G4) GGCGAGGAGGGGCGTGGCCGGC; test: as above; conditions: 20 mM KCl; 40 mM HEPES pH 8.0, 22°C; 5 uM hemin
# [11] = test system: KIT2 (DNA, G4) CGGGCGGGCGCGAGGGAGGGG; test: as above; conditions: 20 mM KCl; 40 mM HEPES pH 8.0, 22°C; 5 uM hemin
# [12] = test system: CatG4-T7 / ssDNA duplex-GQ chimera (DNA, G4) TGGGTAGGGCGGGTTGGGAAATATCCTATAGTGAGTCGTATTAAAG/CTTTAATACGACTCACTATAGG; test: as above; conditions: 20 mM KCl, 26 mM MgCl2, 2.5 mM spermidine; QD buffer pH 8.0; 1 uM DNA, 5 uM hemin; CatG4-T7 strand 52%, ssDNA strand 3% biotinylated
# [13] = test system: CatG4-ext (DNA, G4) ACATAGCTGACTGGCTTGATTTTGGGTAGGGCGGGTTGGGAAATATCGAATTCTCAGCCTACACTGCAGTACTAGTACATATCA; test: competition with hemin: StAv gel shift of self-biotinylation; conditions: 20 mM KCl, 40 mM HEPES pH 8.0, 22°C, 5 uM hemin
# [14] = 20 uM ligand lowers biotinylation 67% to 22-23%
smiles,measurement,setting,value
C=CC1=C(C)C2=Cc3c(C=C)c(C)c4[n]3[Fe]([Cl])[n]3c(c(C)c(CCC(=O)O)c3=CC3=NC(=C4)C(C)=C3CCC(=O)O)=CC1=N2,binding,[1],yes
same,binding,[2],yes
same,binding,[3],weak
same,binding,[4],yes
same,binding,[5],yes
same,binding,[6],yes
same,binding,[7],yes
same,binding,[8],yes
same,binding,[9],yes
same,binding,[10],weak
same,binding,[11],yes
same,binding,[12],yes
CCc1c(C)c2cc3nc(cc4nc(cc5c(CC)c(C)c(cc1[nH]2)n5C)C(C)=C4CCC(=O)O)C(CCC(=O)O)=C3C,binding,[13]; [14],yes
CN(C)c1ccc(Nc2c3ccc(NC(=O)CCN4CCCC4)cc3nc3cc(NC(=O)CCN4CCCC4)ccc23)cc1,binding,[13]; [14],yes
NCCOc1cc(C(=O)Nc2cc(OCCN)c3ccccc3n2)nc(C(=O)Nc2cc(OCCN)c3ccccc3n2)c1,binding,[13]; 20 uM ligand lowers biotinylation 67% to 1%,yes
